Patent US7732429B2 (Trustees of Tufts College, priority 1994, dated 2010)
Values after ≈ are worked out from the molar mass of the structure shown. Where two headings read alike, the source gives them in different places.

Assays:
efflux protein = biological target: T1, efflux protein (Escherichia coli, UniProt P02980); assay: everted membrane vesicle assay, blocking activity of 13-S-derivatives; type: biochemical
T1 sequence (P02980 1-401): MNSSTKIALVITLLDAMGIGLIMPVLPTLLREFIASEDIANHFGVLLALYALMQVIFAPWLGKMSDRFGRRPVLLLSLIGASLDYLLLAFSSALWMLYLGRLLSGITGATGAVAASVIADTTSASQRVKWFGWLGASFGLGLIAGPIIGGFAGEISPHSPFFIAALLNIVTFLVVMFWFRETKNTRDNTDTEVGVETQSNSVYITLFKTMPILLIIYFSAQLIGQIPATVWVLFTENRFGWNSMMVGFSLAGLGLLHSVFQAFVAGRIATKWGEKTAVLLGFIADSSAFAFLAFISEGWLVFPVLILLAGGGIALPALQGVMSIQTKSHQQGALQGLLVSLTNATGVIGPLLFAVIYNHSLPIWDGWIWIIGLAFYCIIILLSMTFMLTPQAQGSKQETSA

[1] = test system: E. coli Tc^s (MI 308-226); assay: susceptibility testing MIC/MLC, drug alone; type: cell-based; settings: for MLC: kills 99.9%
[2] = test system: E. coli Class A Tc^r (DI-299); type: cell-based; settings: drug alone; for MLC: kills 99.9%
[3] = test system: E. coli Class B Tc^r (DI-209); type: cell-based; settings: drug alone; for MLC: kills 99.9%
S. aureus Tc^r (RN4250) = type: cell-based
[4] = test system: E. faecalis Tc^s (ATCC9790r); assay: susceptibility testing MIC/MLC, drug alone; type: cell-based
[5] = test system: E. faecalis Tc^r (L) ATCC9790r/Tell.); assay: susceptibility testing MIC/MLC, drug alone; type: cell-based
[6] = test system: E. faecalis Tc^r(M) (ATCC09790r/TelM); type: cell-based; settings: drug alone; for MLC: kills 99.9%
[7] = test system: tetracycline resistant (Class A) E. coli (strain D1-299); settings: in combination with tetracycline
[8] = test system: tetracycline resistant S. aureus; settings: in combination with tetracycline
E. faecalis (Class M) = settings: result in words
E. coli ML308 = assay: susceptibility of tetracycline susceptible strains (MIC), C5 esters; type: cell-based; settings: E. coli ML308, susceptible strain, drug alone
S. aureus 450 = assay: as above; type: cell-based; settings: S. aureus 450, susceptible strain, drug alone
E. faecalis ATCC 9790 = assay: as above; type: cell-based; settings: E. faecalis ATCC 9790, susceptible strain, drug alone
E. coli DI-299 (Tet A) = assay: MIC/MLC chart, analog with and without doxycycline; type: cell-based; set-up: key to growth/killing, Analog + Doxy / growth/killing, Doxy Control / growth/killing, Analog Control / growth in MIC/MLC chart: +=growth; 0=no growth (MIC); ↓=killing; ? =99.9% killing (MLC); □=no growth, but no microbiologic testing;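 also: bacterial growth inhibition and killing in broth, each agent tested alone or combined with doxycycline across two-fold serial dilutions, overnight incubation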
E. faecalis 211 (Tet M) = assay: MIC/MLC chart, analog with and without doxycycline; type: cell-based
[9] = Tc^r(RN4250), drug alone, kills 99.9%
[10] = Tc^r (L) ATCC9790r/Tell.), drug alone
[11] = Tc^r (L) ATCC9790r/Tell.), drug alone, kills 99.9%
[12] = Analog Control: analog alone .195 μg/ml
[13] = analog .195 μg/ml + doxycycline 1.56 μg/ml
[14] = analog .195 μg/ml + doxycycline 3.12 μg/ml
[15] = analog .195 μg/ml + doxycycline 6.25 μg/ml
[16] = E. faecalis bearing the Tet L determinant

CN(C)C1C(O)=C(C(N)=O)C(=O)C2(O)C(O)=C3C(=O)c4c(O)cccc4C(CSC4CCCC4)C3C(O)C12 (stereo not drawn) [Cyclopentyl, 13-cyclopentylthio-5-hydroxy-6-α-deoxy-tetracycline]
Ki (efflux protein): 367 nM | MIC ([1]; Tc^s (MI 308-226), drug alone): 20 µg | MLC ([1]; Tc^s (MI 308-226), drug alone): 60 µg | MIC [2]: 40 ± 0.25 µg | MLC [2]: 80 µg | MIC [3]: 80 ± 40 µg | MLC [3]: 100 ± 60 µg | MIC (S. aureus Tc^r (RN4250); Tc^r(RN4250), drug alone): 2 ± 0.25 µg | MLC (S. aureus Tc^r (RN4250); [9]): 6 ± 2 µg | MLC (S. aureus Tc^r (RN4250); resistant S. aureus): 6 ± 2 µg/mL (≈ 11 µM) | MIC [4]: 1 ± 0.25 µg | MIC [5, 10]: 1 ± 0.5 µg | MLC [5, 11]: 18 ± 2 µg | MIC [6]: 3 ± 1 µg | MLC [6]: >16 µg | concentrations of analogue and tetracycline that inhibited growth [7]: ≤ 5 μg/ml | combined dose of the two drugs to achieve MLC [8]: ≤ 6 µg/mL | synergistic activity with tetracycline (E. faecalis (Class M)): little, if any synergistic activity

CCC(=O)OC1C2C(=C(O)C3(O)C(=O)C(C(N)=O)=C(O)C(N(C)C)C13)C(=O)c1c(O)cccc1C2CSC1CCCC1 (stereo not shown) [Cmpd 5, 13-cyclopentylthio-5-proprionate-6-deoxy tetracycline]
MIC (E. coli ML308): 20 µg/mL (≈ 33.3 µM) | MIC (S. aureus 450): .4 µg/mL (≈ 0.666 µM) | MIC (E. faecalis ATCC 9790): .4 µg/mL (≈ 0.666 µM) | growth in MIC/MLC chart (E. coli DI-299 (Tet A); Analog Control: analog alone 1.56 μg/ml): + | growth in MIC/MLC chart (E. coli DI-299 (Tet A); Analog Control: analog alone 3.12 μg/ml): + | growth in MIC/MLC chart (E. coli DI-299 (Tet A); Analog Control: analog alone 6.25 μg/ml): + | growth in MIC/MLC chart (E. coli DI-299 (Tet A); Analog Control: analog alone 12.5 μg/ml): + | growth in MIC/MLC chart (E. coli DI-299 (Tet A); Analog Control: analog alone 25.0 μg/ml): + | growth in MIC/MLC chart (E. coli DI-299 (Tet A); Analog Control: analog alone 50.00 μg/ml): + | growth in MIC/MLC chart (E. coli DI-299 (Tet A); [12]): + | growth in MIC/MLC chart (E. coli DI-299 (Tet A); Analog Control: analog alone .39 μg/ml): + | growth in MIC/MLC chart (E. coli DI-299 (Tet A); Analog Control: analog alone .78 μg/ml): + | growth in MIC/MLC chart (E. coli DI-299 (Tet A); analog 1.56 μg/ml + doxycycline 1.55 μg/ml): + | growth in MIC/MLC chart (E. coli DI-299 (Tet A); analog 1.56 μg/ml + doxycycline 3.1 μg/ml): + | growth in MIC/MLC chart (E. coli DI-299 (Tet A); analog 1.56 μg/ml + doxycycline 6.2 μg/ml): + | growth in MIC/MLC chart (E. coli DI-299 (Tet A); analog 3.12 μg/ml + doxycycline 1.53 μg/ml): + | growth in MIC/MLC chart (E. coli DI-299 (Tet A); analog 3.12 μg/ml + doxycycline 3.05 μg/ml): + | growth in MIC/MLC chart (E. coli DI-299 (Tet A); analog 3.12 μg/ml + doxycycline 6.1 μg/ml): + | growth in MIC/MLC chart (E. coli DI-299 (Tet A); analog 6.25 μg/ml + doxycycline 3.0 μg/ml): + | growth in MIC/MLC chart (E. coli DI-299 (Tet A); analog 6.25 μg/ml + doxycycline […]): + | growth in MIC/MLC chart (E. coli DI-299 (Tet A); analog 12.5 μg/ml + doxycycline 2.8 μg/ml): + | growth in MIC/MLC chart (E. coli DI-299 (Tet A); analog 12.5 μg/ml + doxycycline […]): + | growth in MIC/MLC chart (E. coli DI-299 (Tet A); analog 25 μg/ml + doxycycline 2.4 μg/ml): + | growth in MIC/MLC chart (E. coli DI-299 (Tet A); analog 25 μg/ml + doxycycline […]): + | growth in MIC/MLC chart (E. coli DI-299 (Tet A); analog 50 μg/ml + doxycycline 1.56 μg/ml): + | growth in MIC/MLC chart (E. coli DI-299 (Tet A); analog 50 μg/ml + doxycycline .78 μg/ml): + | growth in MIC/MLC chart (E. coli DI-299 (Tet A); [13]): + | growth in MIC/MLC chart (E. coli DI-299 (Tet A); [14]): + | growth in MIC/MLC chart (E. coli DI-299 (Tet A); [15]): + | growth in MIC/MLC chart (E. coli DI-299 (Tet A); analog .195 μg/ml + doxycycline 12.5 μg/ml): + | growth in MIC/MLC chart (E. coli DI-299 (Tet A); analog .195 μg/ml + doxycycline 25.0 μg/ml): + | growth in MIC/MLC chart (E. coli DI-299 (Tet A); analog .39 μg/ml + doxycycline 1.56 μg/ml): + | growth in MIC/MLC chart (E. coli DI-299 (Tet A); analog .39 μg/ml + doxycycline 3.12 μg/ml): + | growth in MIC/MLC chart (E. coli DI-299 (Tet A); analog .39 μg/ml + doxycycline 6.25 μg/ml): + | growth in MIC/MLC chart (E. coli DI-299 (Tet A); analog .39 μg/ml + doxycycline 12.5 μg/ml): + | growth in MIC/MLC chart (E. coli DI-299 (Tet A); analog .39 μg/ml + doxycycline 24.9 μg/ml): ↓ | growth in MIC/MLC chart (E. coli DI-299 (Tet A); analog .78 μg/ml + doxycycline 1.56 μg/ml): + | growth in MIC/MLC chart (E. coli DI-299 (Tet A); analog .78 μg/ml + doxycycline 3.12 μg/ml): + | growth in MIC/MLC chart (E. coli DI-299 (Tet A); analog .78 μg/ml + doxycycline 6.23 μg/ml): + | MLC of analog in combination (E. coli DI-299 (Tet A); with 5.9 μg/ml of doxycycline (Chart 8A)): 6.25 μg/ml | growth in MIC/MLC chart (E. faecalis 211 (Tet M); [12]): + | growth in MIC/MLC chart (E. faecalis 211 (Tet M); [13]): + | growth in MIC/MLC chart (E. faecalis 211 (Tet M); [14]): + | growth in MIC/MLC chart (E. faecalis 211 (Tet M); [15]): +

CCCSCC1c2cccc(O)c2C(=O)C2=C(O)C3(O)C(=O)C(C(N)=O)=C(O)C(N(C)C)C3C(OC(=O)CC)C21 (stereo not shown) [Cmpd 8, 13-propylthio-5-proprionate-6-deoxy-tetracycline]
MIC (E. coli ML308): 20 µg/mL (≈ 34.8 µM) | MIC (S. aureus 450): .3 µg/mL (≈ 0.522 µM) | MIC (E. faecalis ATCC 9790): 2.5 µg/mL (≈ 4.35 µM)

CCSCC1c2cccc(O)c2C(=O)C2=C(O)C3(O)C(=O)C(C(N)=O)=C(O)C(N(C)C)C3CC21 (stereo not shown) [Ethyl, 6-deoxy-13-(ethylmercapto) tetracycline]
MIC ([1]; Tc^s (MI 308-226), drug alone): 5 ± 0.25 µg | MLC ([1]; Tc^s (MI 308-226), drug alone): 50 µg | MIC ([1]; susceptible E. coli): 5 µg/mL (≈ 10.2 µM) | MIC [2]: 14 ± 4 µg | MLC [2]: 45 ± 5 µg | MIC [3]: 36 ± 16 µg | MLC [3]: 50 ± 10 µg | MIC [4]: 1 ± 0.5 µg | MIC [5, 10]: 4 ± 1 µg | MIC [6]: 25 ± 5 µg | concentrations of analogue and tetracycline that inhibited growth [7]: ≤ 5 μg/ml

CN(C)C1C(O)=C(C(N)=O)C(=O)C2(O)C(O)=C3C(=O)c4c(O)cccc4C(CSC4CCCCC4)C3C(O)C12 (stereo not shown) [Cyclohexyl]
Ki (efflux protein): 716 nM | MIC ([1]; Tc^s (MI 308-226), drug alone): 60 ± 10 µg | MLC ([1]; Tc^s (MI 308-226), drug alone): 120 µg | MIC [2]: 100 ± 0.26 µg | MLC [2]: >200 µg | MIC (S. aureus Tc^r (RN4250); Tc^r(RN4250), drug alone): 1.5 ± 0.5 µg | MLC (S. aureus Tc^r (RN4250); [9]): 10 ± 4 µg | MIC [4]: 1.25 ± 0.25 µg | MLC [5, 16]: 8 ± 2 µg/mL (≈ 14.3 µM) | MIC [5, 10]: 1.5 ± 0.5 µg | MLC [5, 11]: 8 ± 2 µg | MIC [6]: 2.5 ± 0.5 µg | MLC [6]: 10 ± 0.25 µg | concentrations of analogue and tetracycline that inhibited growth [7]: ≤ 5 μg/ml | combined dose of the two drugs to achieve MLC [8]: ≤ 6 µg/mL | synergistic activity with tetracycline (E. faecalis (Class M)): little, if any synergistic activity

CN(C)C1C(O)=C(C(N)=O)C(=O)C2(O)C(O)=C3C(=O)c4c(O)cccc4C(CSCc4ccccc4)C3C(O)C12 (stereo not shown) [Benzyl, 6-deoxy-13-(benzylmercapto) tetracycline]
Ki (efflux protein): 1590 nM | MIC ([1]; Tc^s (MI 308-226), drug alone): 16 ± 5 µg | MLC ([1]; Tc^s (MI 308-226), drug alone): 25 ± 6 µg | MIC [2]: 45 ± 20 µg | MLC [2]: 150 ± 50 µg | MIC [3]: 30 ± 0.25 µg | MLC [3]: 90 ± 10 µg | MIC (S. aureus Tc^r (RN4250); Tc^r(RN4250), drug alone): 1 ± 0.25 µg | MLC (S. aureus Tc^r (RN4250); [9]): 10 ± 4 µg | MIC [4]: 0.5 ± 0.25 µg | MLC [5, 16]: 8 ± 2 µg/mL (≈ 14.1 µM) | MIC [5, 10]: 0.75 ± 0.25 µg | MLC [5, 11]: 8 ± 2 µg | MIC [6]: 3.5 ± 1 µg | MLC [6]: 18 ± 2 µg | combined dose of the two drugs to achieve MLC [8]: ≤ 6 µg/mL | synergistic activity with tetracycline (E. faecalis (Class M)): little, if any synergistic activity
